What was measured:
[1] = target: C-C chemokine receptor type 2 (Homo sapiens, UniProt P41597); assay type: cell membranes, CHO-K1, Membrane; conditions: cho-k1
[2] = target: T1, Cholecystokinin receptor type A (Homo sapiens, UniProt P32238); assay type: cell membranes, Membrane; conditions: 1321-n1
T1 sequence (P32238 whole entry): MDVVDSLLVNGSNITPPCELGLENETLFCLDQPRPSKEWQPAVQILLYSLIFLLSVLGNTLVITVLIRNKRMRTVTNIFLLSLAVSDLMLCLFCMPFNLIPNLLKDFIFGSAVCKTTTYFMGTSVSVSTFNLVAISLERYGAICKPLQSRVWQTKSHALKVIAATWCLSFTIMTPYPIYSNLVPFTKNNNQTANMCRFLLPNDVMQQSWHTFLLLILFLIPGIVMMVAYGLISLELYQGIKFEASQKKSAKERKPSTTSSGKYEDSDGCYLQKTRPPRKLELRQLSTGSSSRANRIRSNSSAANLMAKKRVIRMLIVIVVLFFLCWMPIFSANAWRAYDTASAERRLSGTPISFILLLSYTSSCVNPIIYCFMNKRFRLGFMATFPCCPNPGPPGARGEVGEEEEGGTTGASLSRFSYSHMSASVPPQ

[3] = target: T2, Polyunsaturated fatty acid lipoxygenase ALOX15 (Oryctolagus cuniculus, UniProt P12530); test: biochemical; assay type: tissue-based, Reticulocytes;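 note: inhibition of 15-lipoxygenase enzyme activity measured with linoleic acid as the substrate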
T2 sequence (P12530 whole entry): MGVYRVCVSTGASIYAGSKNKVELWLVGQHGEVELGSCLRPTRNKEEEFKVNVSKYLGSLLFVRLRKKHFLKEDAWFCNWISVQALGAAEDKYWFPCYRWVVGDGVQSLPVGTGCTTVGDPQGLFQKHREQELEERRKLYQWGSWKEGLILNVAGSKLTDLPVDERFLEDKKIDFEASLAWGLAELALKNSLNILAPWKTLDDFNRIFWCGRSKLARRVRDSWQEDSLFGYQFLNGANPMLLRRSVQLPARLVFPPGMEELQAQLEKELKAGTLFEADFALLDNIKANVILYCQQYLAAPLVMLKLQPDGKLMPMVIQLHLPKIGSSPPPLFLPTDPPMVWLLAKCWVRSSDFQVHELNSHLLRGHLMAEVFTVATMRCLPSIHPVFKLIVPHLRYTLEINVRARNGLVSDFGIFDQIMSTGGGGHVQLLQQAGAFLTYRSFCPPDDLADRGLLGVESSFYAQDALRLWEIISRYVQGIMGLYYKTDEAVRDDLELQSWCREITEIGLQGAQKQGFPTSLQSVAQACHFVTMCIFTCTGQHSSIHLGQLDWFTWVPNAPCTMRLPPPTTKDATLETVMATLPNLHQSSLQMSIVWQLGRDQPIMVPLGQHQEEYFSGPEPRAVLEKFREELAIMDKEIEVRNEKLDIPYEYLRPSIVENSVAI

[4] = target: T3, Neuropeptide Y receptor type 1 (Homo sapiens, UniProt P25929); assay type: cell membranes, Membrane; conditions: sk-n-mc
T3 sequence (P25929 whole entry): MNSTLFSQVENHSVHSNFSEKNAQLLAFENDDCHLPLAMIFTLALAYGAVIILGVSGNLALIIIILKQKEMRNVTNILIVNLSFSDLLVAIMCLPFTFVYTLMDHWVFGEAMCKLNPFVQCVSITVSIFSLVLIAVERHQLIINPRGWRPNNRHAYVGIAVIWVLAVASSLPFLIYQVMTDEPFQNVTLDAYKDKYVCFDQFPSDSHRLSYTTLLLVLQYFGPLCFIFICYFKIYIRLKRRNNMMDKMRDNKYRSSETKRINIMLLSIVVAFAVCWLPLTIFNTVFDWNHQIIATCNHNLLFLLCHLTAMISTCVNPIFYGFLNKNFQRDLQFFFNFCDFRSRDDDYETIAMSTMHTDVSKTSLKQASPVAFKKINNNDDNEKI

[5] = target: Delta-type opioid receptor (Homo sapiens, UniProt P41143); assay type: cell membranes, HEK293, Membrane; conditions: hek293
Chain of Delta-type opioid receptor (P41143 whole entry): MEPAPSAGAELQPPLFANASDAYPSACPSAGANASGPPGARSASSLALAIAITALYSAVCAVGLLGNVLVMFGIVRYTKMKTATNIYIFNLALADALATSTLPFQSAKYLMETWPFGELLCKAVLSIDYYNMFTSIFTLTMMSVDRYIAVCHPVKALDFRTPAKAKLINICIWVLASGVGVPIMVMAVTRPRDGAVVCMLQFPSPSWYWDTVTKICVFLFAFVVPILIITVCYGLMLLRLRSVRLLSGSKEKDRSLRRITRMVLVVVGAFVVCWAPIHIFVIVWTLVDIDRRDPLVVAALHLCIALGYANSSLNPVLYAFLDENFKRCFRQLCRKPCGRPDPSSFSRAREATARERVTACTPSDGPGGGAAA

[6] = target: Tyrosine-protein kinase Fyn (Homo sapiens, UniProt P06241); test: biochemical; assay type: cell-based, Insect cells;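 note: enzymatic inhibition of Fyn kinase activity measured with Poly(Glu:Tyr) as the phosphorylation substrate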
Chain of Tyrosine-protein kinase Fyn (P06241 whole entry): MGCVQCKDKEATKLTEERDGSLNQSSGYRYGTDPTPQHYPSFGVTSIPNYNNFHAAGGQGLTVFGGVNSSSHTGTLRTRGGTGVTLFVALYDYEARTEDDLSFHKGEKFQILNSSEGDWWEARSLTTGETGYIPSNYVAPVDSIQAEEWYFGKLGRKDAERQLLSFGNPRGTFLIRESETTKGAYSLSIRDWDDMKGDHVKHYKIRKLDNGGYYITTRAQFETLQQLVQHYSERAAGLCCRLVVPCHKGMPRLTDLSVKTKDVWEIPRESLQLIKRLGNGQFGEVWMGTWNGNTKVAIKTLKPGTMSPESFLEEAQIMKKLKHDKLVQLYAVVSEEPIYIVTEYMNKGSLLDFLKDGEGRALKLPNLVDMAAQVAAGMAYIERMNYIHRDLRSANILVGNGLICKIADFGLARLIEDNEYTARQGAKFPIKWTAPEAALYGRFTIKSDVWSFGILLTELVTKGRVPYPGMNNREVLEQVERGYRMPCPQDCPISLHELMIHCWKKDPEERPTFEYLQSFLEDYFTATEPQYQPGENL

Cytochrome P450 1A2 = target: T4, Cytochrome P450 1A2 (Homo sapiens, UniProt P05177); conditions: bti-tn-5b1-4
T4 sequence (P05177 whole entry): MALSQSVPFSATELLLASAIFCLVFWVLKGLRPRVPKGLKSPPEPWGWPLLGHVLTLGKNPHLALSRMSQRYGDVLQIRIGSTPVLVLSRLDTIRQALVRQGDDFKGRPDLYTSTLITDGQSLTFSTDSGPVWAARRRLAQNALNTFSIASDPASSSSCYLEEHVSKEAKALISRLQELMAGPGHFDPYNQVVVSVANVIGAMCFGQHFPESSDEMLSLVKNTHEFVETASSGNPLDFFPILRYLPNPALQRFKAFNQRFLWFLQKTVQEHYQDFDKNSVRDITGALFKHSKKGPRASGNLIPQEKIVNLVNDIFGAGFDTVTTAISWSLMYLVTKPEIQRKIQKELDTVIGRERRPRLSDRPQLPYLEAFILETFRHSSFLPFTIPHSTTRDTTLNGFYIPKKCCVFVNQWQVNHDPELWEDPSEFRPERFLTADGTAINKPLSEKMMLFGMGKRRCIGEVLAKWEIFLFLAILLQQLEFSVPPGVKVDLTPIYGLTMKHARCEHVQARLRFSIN

Estrogen receptor beta = Estrogen receptor beta (Homo sapiens, UniProt Q92731); conditions: sf9
Chain of Estrogen receptor beta (Q92731 whole entry): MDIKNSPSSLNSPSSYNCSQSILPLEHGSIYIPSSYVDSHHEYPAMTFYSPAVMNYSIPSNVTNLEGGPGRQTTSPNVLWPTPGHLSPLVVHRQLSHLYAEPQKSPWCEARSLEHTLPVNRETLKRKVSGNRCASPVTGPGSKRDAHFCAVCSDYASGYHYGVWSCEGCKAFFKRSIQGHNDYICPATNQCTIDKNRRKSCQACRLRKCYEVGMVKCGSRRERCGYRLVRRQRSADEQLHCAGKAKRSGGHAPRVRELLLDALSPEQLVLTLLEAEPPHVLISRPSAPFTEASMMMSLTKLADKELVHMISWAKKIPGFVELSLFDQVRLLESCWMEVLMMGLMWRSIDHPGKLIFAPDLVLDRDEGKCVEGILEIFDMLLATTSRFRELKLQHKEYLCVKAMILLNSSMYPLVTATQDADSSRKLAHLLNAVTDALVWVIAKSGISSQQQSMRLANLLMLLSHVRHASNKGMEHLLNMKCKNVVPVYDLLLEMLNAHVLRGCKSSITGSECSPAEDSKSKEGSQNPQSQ
Note: in other assays of this panel Not Active means under 50% inhibition at 10 µM.

Chain of C-C chemokine receptor type 2 (P41597 whole entry): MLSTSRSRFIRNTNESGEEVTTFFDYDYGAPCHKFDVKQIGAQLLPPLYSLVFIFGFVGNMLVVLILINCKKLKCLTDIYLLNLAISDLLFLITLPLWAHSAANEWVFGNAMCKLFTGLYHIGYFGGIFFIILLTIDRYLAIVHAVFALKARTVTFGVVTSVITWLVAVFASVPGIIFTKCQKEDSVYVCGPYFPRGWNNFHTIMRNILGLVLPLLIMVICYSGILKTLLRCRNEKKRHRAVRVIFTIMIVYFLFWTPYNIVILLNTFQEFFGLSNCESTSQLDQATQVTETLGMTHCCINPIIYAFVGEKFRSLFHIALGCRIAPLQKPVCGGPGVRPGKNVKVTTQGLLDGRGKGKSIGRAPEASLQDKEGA

Compound	IC50 [1]	IC50 [2]	IC50 ([3]; reticulocytes)	IC50 [4]	IC50 [5]	IC50 ([6]; insect cells)	IC50 (Cytochrome P450 1A2)	Ki (Cytochrome P450 1A2)	IC50 (Estrogen receptor beta)	Ki [1]	Ki [2]	Ki ([3]; reticulocytes)	Ki [4]	Ki [5]	Ki (Estrogen receptor beta)	IC50 ([3]; read-out: IC50) [µM]	IC50 ([6]; read-out: IC50) [µM]
NCCCCCC(=O)O [AMINOCAPROIC ACID]	Not Active	Not Active	Not Active	Not Active	Not Active	Not Active	Not Active	Not Active									
Cc1ccc(-c2cc(C(F)(F)F)nn2-c2ccc(S(N)(=O)=O)cc2)cc1 [CELECOXIB]	Not Active	Not Active	Not Active	Not Active	Not Active	Not Active	Not Active	Not Active									
CCCCc1nc(Cl)c(CO)n1Cc1ccc(-c2ccccc2-c2nnn[nH]2)cc1 [LOSARTAN]		Not Active	Not Active	Not Active	Not Active	Not Active	Not Active	Not Active	Not Active								
CADMIUM ACETATE	Not Active	Not Active	Not Active	Not Active	Not Active		Not Active	Not Active	Not Active	Not Active	Not Active	Not Active	Not Active	Not Active	Not Active		
CCC1(c2ccc(N)cc2)CCC(=O)NC1=O (stereo not drawn) [AMINOGLUTETHIMIDE]	Not Active	Not Active	Not Active	Not Active	Not Active	Not Active	Not Active	Not Active									
C[C@]12CCC(=O)C=C1CC[C@@H]1[C@@H]2CC[C@@]2(C)[C@H]1CC[C@]2(C)O [METHYLTESTOSTERONE]	Not Active	Not Active	Not Active	Not Active	Not Active	Not Active	Not Active	Not Active									
N=C(N)NCCN1CCCCCCC1 [GUANETHIDINE]	Not Active	Not Active	Not Active	Not Active	Not Active	Not Active											
CN(C)CCCN1c2ccccc2Sc2ccc(Cl)cc21 [CHLORPROMAZINE]	Not Active	Not Active		Not Active					Not Active							16	8.68
C[C@H](CCC(=O)O)[C@H]1CC[C@H]2[C@@H]3[C@H](O)C[C@@H]4C[C@H](O)CC[C@]4(C)[C@H]3C[C@H](O)[C@]12C [CHOLIC ACID]	Not Active	Not Active	Not Active	Not Active	Not Active	Not Active	Not Active	Not Active									
C[C@H]1c2cccc(O)c2C(=O)C2=C(O)[C@]3(O)C(=O)C(C(N)=O)=C(O)[C@@H](N(C)C)[C@@H]3[C@@H](O)[C@@H]21.O [DOXYCYCLINE]	Not Active	Not Active	Not Active	Not Active	Not Active	Not Active	Not Active	Not Active									
CNCCCN1c2ccccc2CCc2ccccc21 [DESIPRAMINE]	Not Active	Not Active	Not Active	Not Active	Not Active	Not Active	Not Active	Not Active									
CC(O)CO (stereo not drawn) [PROPYLENE GLYCOL]	Not Active	Not Active	Not Active	Not Active	Not Active	Not Active	Not Active	Not Active									
C[C@]12CC[C@@H]3c4ccc(O)cc4CC[C@H]3[C@@H]1CCC2=O [ESTRONE]	Not Active	Not Active		Not Active	Not Active	Not Active										6.59	
CNCCc1ccccn1 [BETAHISTINE]	Not Active	Not Active	Not Active	Not Active	Not Active	Not Active	Not Active	Not Active									
Nc1nc2c(ncn2COCCO)c(=O)[nH]1 [ACYCLOVIR]	Not Active	Not Active	Not Active	Not Active	Not Active	Not Active	Not Active	Not Active									
LEAD (II) ACETATE	Not Active	Not Active	Not Active	Not Active	Not Active		Not Active	Not Active	Not Active	Not Active	Not Active	Not Active	Not Active	Not Active	Not Active		
O=C(O)CCCc1ccc(N(CCCl)CCCl)cc1 [CHLORAMBUCIL]	Not Active	Not Active	Not Active	Not Active	Not Active	Not Active	Not Active	Not Active									
CC(=O)O[C@@]12CO[C@@H]1C[C@H](O)[C@@]1(C)C(=O)[C@H](O)C3=C(C)[C@@H](OC(=O)[C@H](O)[C@@H](NC(=O)OC(C)(C)C)c4ccccc4)C[C@@](O)([C@@H](OC(=O)c4ccccc4)[C@H]21)C3(C)C.O.O.O [DOCETAXEL]	Not Active	Not Active	Not Active	Not Active	Not Active	Not Active	Not Active	Not Active									
C[C@](N)(Cc1ccc(O)c(O)c1)C(=O)O [METHYLDOPA]	Not Active	Not Active		Not Active	Not Active		Not Active	Not Active								2.13	5.18
Nc1nc(N)nc(-c2cc(Cl)ccc2Cl)n1.O=C(O)/C=C\C(=O)O [IRSOGLADINE MALEATE]	Not Active	Not Active	Not Active	Not Active	Not Active	Not Active	Not Active	Not Active									
Nc1ncn([C@@H]2O[C@H](CO)[C@@H](O)[C@H]2O)c(=O)n1 [AZACITIDINE]	Not Active	Not Active	Not Active	Not Active	Not Active	Not Active	Not Active	Not Active									
CC(C)(Oc1ccc(Cl)cc1)C(=O)O [CLOFIBRIC ACID]	Not Active	Not Active	Not Active	Not Active	Not Active	Not Active											
Clc1cccc(Cl)c1NC1=NCCN1 [CLONIDINE]	Not Active	Not Active	Not Active	Not Active	Not Active	Not Active	Not Active	Not Active									

From ChEMBL document CHEMBL1909046, “DrugMatrix in vitro pharmacology data”
